How the values were obtained:
adult rat cardiomyocytes = test: Caspase-Glo 9 and 3/7 assays of H2O2 induced apoptosis; format: cell-based; conditions: 3 μM inhibitor 30 min, 100 nM HASF 30 min, 200 μM H2O2 3 hours
Experimental: FIGS. 2B and 2C are bar graphs showing relative caspase activity. Adult rat cardiomyocytes were freshly isolated and treated ±10 nM of HASF for 30 min, and then challenged with 100 μM of H2O2 for various time points. H2O2 induced apoptosis in cardiomyocytes was evidenced by the dynamic increase in the activities of the initiator Caspase 9 and effector Caspase […] at 5 h, 7 h and 9 h respectively. Y axis represent the relative amount of luminescence indicating the relative amount of active Caspase activities. ** P<0.01 and *** P<0.001. Data are presented as means±standard deviation of triplicates.
FIG. 3C is a bar graph showing fold-change in caspase activity. Serum-starved adult rat cardiomyocytes were treated with 3 μM PKC inhibitors or vehicle DMSO for 30 minutes, then 100 nM HASF recombinant protein was added for 30 minutes followed by treatment with 200 μM H2O2 for 3 hours. Apoptosis was determined by detection of Caspase-9 activity using a homogeneous luminescent assay. All samples were measured in triplicates. *P<0.05 vs. non-HASF treated cells.
FIG. 4C is a bar graph showing relative caspase activity in adult cardiomyocytes. Apoptosis as determined by detection of Caspase-9 activity on adult rat cardiomyocytes pre-treated with 178 μM PKC translocation inhibitor peptide for 10 minutes and then with 100 nM of HASF for 30 minutes. Thereafter, cells were challenged with 200 μM H2O2 for 3 hours. All samples were measured in triplicates. *P <0.05 vs. non-HASF treated cells and the experiment was repeated multiple times.
Adult rat ventricular cardiomyocytes were isolated from 6 weeks old female Sprague-Dawley rat (Harlan World Headquarters, Indianapolis, Ill., USA) hearts by enzymatic digestion and were seeded in (6-well) plates or Delta T culture dishes (Bioptechs, Inc., Pa.) pre-coated with 1 μg/cm2 of laminin (Sigma) at 5×10^4/well and cultured overnight in serum-free M199 medium (Sigma), supplemented with 2 mM of L-carnitine, 5 mM of creatine, 5 mM of taurine, 0.2% of albumin, 100 U/ml of penicillin and 100 μg/ml of streptomycin. […]

[1] = system: PKC, Raf, ERK 1/2, PDK1 phosphorylation in adult rat cardiomyocytes; test: Western blot analysis of signaling protein phosphorylation (PKC/ERK pathway); format: cell-based; conditions: 3 μM inhibitor 30 min, then 100 nM HASF 5-10 min
Experimental: FIG. 3A is a photograph of an electrophoretic gel. HASF activates the PKC pathway. A. Western blots analysis for various signaling proteins. Serum-starved adult rat cardiomyocytes were stimulated with 100 nM HASF recombinant protein for various time courses. Cell lysate was collected and the proteins were resolved by SDS-PAGE. Insulin from bovine pancreas was used as a positive control. min: minutes of treatment.
FIG. 3B is a photograph of an immunoblot. Serum-starved adult rat cardiomyocytes were pre-treated with 3 μM PKC inhibitors BIM, Gö6976, or Gö6983 for 30 minutes, then stimulated with 100 nM HASF recombinant protein for 5-10 min and cells were harvested. Total cell lysates were used to analyze the levels of ERK1/2 phosphorylation by western blot analysis.
FIG. 4A is a photograph of an immunoblot. Western blot analysis for PKC E and PKC delta phosphorylation on total cell lysates from serum-starved adult rat cardiomyocytes stimulated with 100 nM HASF recombinant protein at 5 and 30 min. HASF b1 and b2 represent different batches of recombinant protein. PMA was used as positive control.
FIG. 4B is a photograph of an immunoblot. Western blot analysis for ERK1/2 phosphorylation on total cell lysates from adult rat cardiomyocytes pre-treated with 10 pM PKC epsilon translocation inhibitor peptide for 20 min, then 100 nM HASF recombinant protein was added for 5 min or 10 min.
FIGS. 8A-B are photographs of immunoblots. Western blot analysis for PKC a/b and PKC theta phosphorylation on total cell lysates from serum-starved adult rat cardiomyocytes stimulated with 100 nM HASF recombinant protein for the indicated times. HASF batch 1 and 2 represent different batches of recombinant protein. PMA was used as positive control.
Rabbit polyclonal antibodies for phospho-pan PKC, phospho-ERK1/2, phospho-raf, phosphor-PDK1, total Akt were obtained from Cell Signaling Tech. Rabbit polyclonal antibody for phospho-PKC epsilon, phospho-Bad, and GAPDH was obtained from Abeam. HRP-conjugated goat anti-rabbit secondary antibody was obtained from Cell Signaling Tech.

CN(C)CCCn1cc(C2=C(c3c[nH]c4ccccc34)C(=O)NC2=O)c2ccccc21.Cl [BIM, Bisindolylmalemide Hydrochloride, reference compound]
effect of PKC inhibitor on protective effects of HASF (Caspase-9 activity) (adult rat cardiomyocytes): abolished the protective effects
effect of PKC inhibitor on HASF-mediated ERK1/2 phosphorylation [1]: abolished
